{"source": "patent US20230172936A1", "about": "“VCP/p97 INHIBITOR FOR THE TREATMENT OF CANCER” (Cleave Therapeutics, Inc., priority 2020, published 2023)", "key": {"[1]": {"test_system": "30 passage 1 (P1) models of human acute myeloid leukemia", "experiment": "Ex-vivo cytotoxicity by Cell Titer Glo, all models", "assay_type": "cell-based", "details": "144 h, single agent, 6 days, read-out: IC50s in these models", "procedure": "(§1) Acute myelogenous leukemia (AML) is the most common acute leukemia in adults. A hematologic cancer, the disease is highly heterogeneous, with multiple subtypes. About 30% of AML cases harbor a FLT3/ITD mutation making the disease highly proliferative and more aggressive with a high risk of relapse.\n(§2) Triplicate wells with media only and duplicate wells of vehicle (0.2% DMSO) were used as negative controls. […] To measure proliferation, untreated cells at days 0 and 6 were evaluated via Cell Titer Glo.\n(§3) Protocol: • 1. AML cells were thawed and resuspended in enriched media composed of StemSpan™ Serum-Free Expansion Media (SFEM), 2% heat-inactivated FBS, StemSpan™ CC110 and recombinant human IL-3. • 2. 20,000 cells/well in 100 μL volume were plated on study day 0. • 3. […] Cells were incubated in the presence of drug for 6 days. • 5. On day 6, plates were removed from the incubator and equilibrated to room temperature for 20 minutes. 100 μL/well Cell Titer Glo was added to each well and incubated for 10 minutes before plate reading. • 6. Luminescence was recorded using Tecan Infinite M Plex plate reader."}, "CTG-2454": {"test_system": "CTG-2454", "experiment": "Ex-vivo cytotoxicity by Cell Titer Glo", "assay_type": "cell-based", "details": "Homo sapiens, 144 h; CTG-2454, 6 days", "procedure": "as §1, §2, §3"}, "CTG-2702": {"test_system": "CTG-2702", "experiment": "Ex-vivo cytotoxicity by Cell Titer Glo", "assay_type": "cell-based", "details": "Homo sapiens, 144 h; CTG-2702, 6 days", "procedure": "as §1, §2, §3"}, "CTG-2236": {"test_system": "CTG-2236", "experiment": "Ex-vivo cytotoxicity by Cell Titer Glo", "assay_type": "cell-based", "details": "Homo sapiens, 144 h; CTG-2236, 6 days", "procedure": "as §1, §2, §3"}, "CTG-2233": {"test_system": "CTG-2233", "experiment": "Ex-vivo cytotoxicity by Cell Titer Glo", "assay_type": "cell-based", "details": "Homo sapiens, 144 h; CTG-2233, 6 days", "procedure": "as §1, §2, §3"}, "CTG-2901": {"test_system": "CTG-2901", "experiment": "Ex-vivo cytotoxicity by Cell Titer Glo", "assay_type": "cell-based", "details": "Homo sapiens, 144 h; CTG-2901, 6 days", "procedure": "as §1, §2, §3"}, "CTG-2238": {"test_system": "CTG-2238", "experiment": "Ex-vivo cytotoxicity by Cell Titer Glo", "assay_type": "cell-based", "details": "Homo sapiens, 144 h; CTG-2238, 6 days", "procedure": "as §1, §2, §3"}, "CTG-2700": {"test_system": "CTG-2700", "experiment": "Ex-vivo cytotoxicity by Cell Titer Glo", "assay_type": "cell-based", "details": "Homo sapiens, 144 h; CTG-2700, 6 days", "procedure": "as §1, §2, §3"}, "CTG-2452": {"test_system": "CTG-2452", "experiment": "Ex-vivo cytotoxicity by Cell Titer Glo", "assay_type": "cell-based", "details": "Homo sapiens, 144 h; CTG-2452, 6 days", "procedure": "as §1, §2, §3"}, "CTG-3438": {"test_system": "CTG-3438", "experiment": "Ex-vivo cytotoxicity by Cell Titer Glo", "assay_type": "cell-based", "details": "Homo sapiens, 144 h; CTG-3438, 6 days", "procedure": "as §1, §2, §3"}, "CTG-2228": {"test_system": "CTG-2228", "experiment": "Ex-vivo cytotoxicity by Cell Titer Glo", "assay_type": "cell-based", "details": "Homo sapiens, 144 h; CTG-2228, 6 days", "procedure": "as §1, §2, §3"}, "CTG-2457": {"test_system": "CTG-2457", "experiment": "Ex-vivo cytotoxicity by Cell Titer Glo", "assay_type": "cell-based", "details": "Homo sapiens, 144 h; CTG-2457, 6 days", "procedure": "as §1, §2, §3"}, "CTG-2235": {"test_system": "CTG-2235", "experiment": "Ex-vivo cytotoxicity by Cell Titer Glo", "assay_type": "cell-based", "details": "Homo sapiens, 144 h; CTG-2235, 6 days", "procedure": "as §1, §2, §3"}, "CTG-2229": {"test_system": "CTG-2229", "experiment": "Ex-vivo cytotoxicity by Cell Titer Glo", "assay_type": "cell-based", "details": "Homo sapiens, 144 h; CTG-2229, 6 days", "procedure": "as §1, §2, §3"}, "CTG-2239": {"test_system": "CTG-2239", "experiment": "Ex-vivo cytotoxicity by Cell Titer Glo", "assay_type": "cell-based", "details": "Homo sapiens, 144 h; CTG-2239, 6 days", "procedure": "as §1, §2, §3"}, "CTG-2775": {"test_system": "CTG-2775", "experiment": "Ex-vivo cytotoxicity by Cell Titer Glo", "assay_type": "cell-based", "details": "Homo sapiens, 144 h; CTG-2775, 6 days", "procedure": "as §1, §2, §3"}, "CTG-3440": {"test_system": "CTG-3440", "experiment": "Ex-vivo cytotoxicity by Cell Titer Glo", "assay_type": "cell-based", "details": "Homo sapiens, 144 h; CTG-3440, 6 days", "procedure": "as §1, §2, §3"}, "CTG-2234": {"test_system": "CTG-2234", "experiment": "Ex-vivo cytotoxicity by Cell Titer Glo", "assay_type": "cell-based", "details": "Homo sapiens, 144 h; CTG-2234, 6 days", "procedure": "as §1, §2, §3"}, "CTG-2502": {"test_system": "CTG-2502", "experiment": "Ex-vivo cytotoxicity by Cell Titer Glo", "assay_type": "cell-based", "details": "Homo sapiens, 144 h; CTG-2502, 6 days", "procedure": "as §1, §2, §3"}, "MV-411 cell line": {"test_system": "MV-411 cell line", "experiment": "Cytotoxicity by Cell Titer Glo", "assay_type": "cell-based", "details": "Homo sapiens, MV4-11, 144 h, 6 days", "procedure": "as §1, §2, §3"}, "[2]": {"test_system": "human A549 lung adenocarcinoma xenograft tumors", "experiment": "Tumor growth of A549 xenograft tumors", "assay_type": "in vivo, mice", "details": "18 day period", "text": "Group 1 received PO 4-days on, 3-days off doses (QD4/3 off) of vehicle."}, "[3]": {"experiment": "Adverse events and visual impairment in Phase I subjects"}, "p97": {"target": "p97 (Homo sapiens, UniProt P55072)", "sequence (P55072 whole entry)": "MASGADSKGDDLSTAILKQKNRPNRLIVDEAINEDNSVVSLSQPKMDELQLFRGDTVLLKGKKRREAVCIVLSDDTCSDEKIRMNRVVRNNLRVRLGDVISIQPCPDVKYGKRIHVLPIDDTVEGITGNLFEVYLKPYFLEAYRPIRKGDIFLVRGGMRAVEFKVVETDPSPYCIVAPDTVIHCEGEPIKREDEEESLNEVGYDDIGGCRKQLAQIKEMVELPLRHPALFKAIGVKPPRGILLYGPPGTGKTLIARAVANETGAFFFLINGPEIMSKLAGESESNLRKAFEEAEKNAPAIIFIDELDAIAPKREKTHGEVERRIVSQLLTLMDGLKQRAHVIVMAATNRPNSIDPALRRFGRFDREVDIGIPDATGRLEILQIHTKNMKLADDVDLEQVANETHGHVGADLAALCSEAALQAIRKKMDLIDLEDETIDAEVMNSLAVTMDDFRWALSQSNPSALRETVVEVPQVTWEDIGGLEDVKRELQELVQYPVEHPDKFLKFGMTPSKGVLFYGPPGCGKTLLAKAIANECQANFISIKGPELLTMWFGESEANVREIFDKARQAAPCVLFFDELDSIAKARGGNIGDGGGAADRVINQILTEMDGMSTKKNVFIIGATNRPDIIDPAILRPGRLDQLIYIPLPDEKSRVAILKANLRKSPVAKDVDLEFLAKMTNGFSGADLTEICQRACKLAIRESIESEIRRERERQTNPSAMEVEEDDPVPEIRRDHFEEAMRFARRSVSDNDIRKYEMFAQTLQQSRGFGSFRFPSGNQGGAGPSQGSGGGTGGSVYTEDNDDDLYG", "experiment": "P97 inhibition assay (ADP glo)", "assay_type": "biochemical", "procedure": "The p97 assay is an assay used to determine inhibitory activity of compounds against the p97 complex. Inhibition of activity of the p97 proteosome complex can enable apoptosis and cause elimination of neoplastic cells (cancer cells). The assay follows that of Christianson in Nat. Cell Biol., (2011) 14:93. The reagents used for the p97 assay include an assay buffer which is a mixture of 50 mM TRIS pH 7.5, 20 mM MgCI˜, 0.02% TX-100, 1 mM DTT and 0.2% (v/v) glycerol. The well plate is a Corning 3674, 384w plate. The identification kit is an ADP glo kit (Promega): stop buffer, detection reagent.\nThe assay is conducted as follows: • Serial dilute compound in DMSO in a 1:3.33-fold 10 point serial dilution. • In each well of 384w plate add the following reagents: 0.5 μL compound serial diluted in DMSO (Final Conc. 10%) 2 μL ATP (Final Conc.=20 μM, diluted in assay buffer) 2.5 μL p97 (Final Conc.=20 nM, diluted in assay buffer). • Incubate at 37° C. for 15 min. • Add 5 μL of stop buffer, incubate at RT for 40 min. • Add 10 μL of detection reagent, incubate at RT for 30 min. • Read luminescence on Envision plate reader. […]"}}}
{"smiles": "Cc1cc2c(C(N)=O)cccc2n1-c1nc2c(c(NCc3ccccc3)n1)CCCN2", "note": "[Compound 1, 1-(4-(Benzylamino)-5,6,7,8-tetrahydropyrido[2,3-d]pyrimidin-2-yl)-2-methyl-1H-indole-4-carboxamide]", "values": [{"measurement": "IC50", "setting": "[1]", "result": "200 to 800", "unit": "nM"}, {"measurement": "IC50", "setting": "CTG-2454", "result": 208, "unit": "nM"}, {"measurement": "IC50", "setting": "CTG-2702", "result": 427, "unit": "nM"}, {"measurement": "IC50", "setting": "CTG-2236", "result": 527, "unit": "nM"}, {"measurement": "IC50", "setting": "CTG-2233", "result": 412, "unit": "nM"}, {"measurement": "IC50", "setting": "CTG-2901", "result": 446, "unit": "nM"}, {"measurement": "IC50", "setting": "CTG-2238", "result": 237, "unit": "nM"}, {"measurement": "IC50", "setting": "CTG-2700", "result": 386, "unit": "nM"}, {"measurement": "IC50", "setting": "CTG-2452", "result": 512, "unit": "nM"}, {"measurement": "IC50", "setting": "CTG-3438", "result": 263, "unit": "nM"}, {"measurement": "IC50", "setting": "CTG-2228", "result": 568, "unit": "nM"}, {"measurement": "IC50", "setting": "CTG-2457", "result": 627, "unit": "nM"}, {"measurement": "IC50", "setting": "CTG-2235", "result": 362, "unit": "nM"}, {"measurement": "IC50", "setting": "CTG-2229", "result": 752, "unit": "nM"}, {"measurement": "IC50", "setting": "CTG-2239", "result": 395, "unit": "nM"}, {"measurement": "IC50", "setting": "CTG-2775", "result": 437, "unit": "nM"}, {"measurement": "IC50", "setting": "CTG-3440", "result": 332, "unit": "nM"}, {"measurement": "IC50", "setting": "CTG-2234", "result": 485, "unit": "nM"}, {"measurement": "IC50", "setting": "CTG-2502", "result": 480, "unit": "nM"}, {"measurement": "IC50", "setting": "MV-411 cell line", "result": 262, "unit": "nM"}, {"measurement": "TGI", "setting": "[2]; 100 mg/kg QD4/3 off", "result": 61, "unit": "%"}, {"measurement": "tumor growth inhibition (TGI)", "setting": "[2]; 150 mg/kg BIW, PO", "result": 20, "unit": "%"}, {"measurement": "TGI", "setting": "[2]; 225 mg/kg once weekly (1/W)", "result": 31, "unit": "%"}, {"measurement": "adverse events", "setting": "[3]; 25 mg QD, two subjects", "result": "No adverse events"}, {"measurement": "symptoms of visual impairment", "setting": "[3]; 25 mg QD, two subjects", "result": "no symptoms of visual impairment"}, {"measurement": "symptoms of visual impairment or other visual events", "setting": "[3]; any dose levels, highest level 275 mg QD", "result": "No symptoms of visual impairment or other visual events"}, {"measurement": "symptoms of visual impairment or other visual adverse events", "setting": "[3]; at equivalent plasma exposure of Compound 1 and CB-5083", "result": "no symptoms of visual impairment or other visual adverse events"}, {"measurement": "IC50", "setting": "p97", "result": "< 30", "unit": "nM"}]}
